Patent US11692175B2, “Methods for generation of pluripotent and multipotent cells” (The USA, as represented by the Secretary, Dept. of Health …, priority 2012, dated 2023)
Several values for one entry are separate records, joined by “and”; a condition that tells them apart may be missing. Equal entries are not always repeated.

Columns and labels:
[1] = tested on: Jurkat T cells; experiment: c-Myc mRNA in Jurkat T cells treated with thrombospondin-1 or CD47-binding peptide (real time PCR); type: cell-based, human; details: for c-Myc levels (FIG. 7E): CD47-binding peptide vs control peptide
Protocol: (§1) RNA extraction and Real Time PCR: Total RNA was extracted using TRIzol® reagent (Invitrogen, Rockville, Md.) 24-36 hours after transfection or as indicated. Harvested mouse tissues were frozen in liquid nitrogen or placed into RNA Later™ RNA Stabilization Reagent (Ambion, Life Technologies, Grand Island, N.Y.). Whole organs (lungs, spleen, kidney, testis, skeletal muscle, brain, heart, and liver) were homogenized in TRIzol® reagent, and RNA was isolated, cDNA was prepared using First Maxima First Strand cDNA Synthesis kit for RT-qPCR (Fermentas Life Sciences, Glen Burnie, Md.). Real Time PCR was performed using the primers listed herein as SEQ ID NOs: 3-34, and SYBR Green PCR master reaction mix (AB applied Sciences, Life Technologies, Grand Island, N.Y.) on an MJ Research OPTICON I instrument (Bio-Rad) with the following amplification program: 95° C. for 15 minutes, followed by 40 cycles of 95° C. for 15 seconds, 58° C. for 20 seconds, 72° C. for 25 seconds, and 7° C. for 1 minute. Melting curves were performed for each product from 30° C. to 95° C. reading every 0.5° C. with a 6-second dwell time. The fold changes in mRNA expression were calculated by normalizing to hypoxanthine phosphoribosyltransferase (HPRT1) and TATA-box binding protein associated factor (TAF9) for mouse tissues and endothelial cells, or β-2 microglobulin (B2M) mRNA levels for spleen and isolated splenocytes. B2M was used for normalization of mRNA levels in human cells. Note that the total RNA yield per cell was higher for all CD47-null and CD47-deficient cells and tissues as compared to WT.
Modulation of stem cell transcription factors by thrombospondin-1: Jurkat and JinB8 cells were centrifuged and re-suspended in RPMI+1% FBS at 10^6 cells/ml. Cells were plated in 12 well plates and treated with 1 μg/ml (2.2 nM) TSP1 using the indicated times and concentrations, and total RNA was isolated using TRIzol® reagent.

[2] = tested on: HUVEC; experiment: MTS proliferation assay of treated HUVEC; type: cell-based, human; details: 6 days post-treatment
Protocol: Cell proliferation assays: Equal numbers of mouse lung endothelial cells from WT and CD47 (Passage 1) were plated in 96 well plates using RPMI+1% FBS. After 72 hours, net cell proliferation was assessed by the increase in formazan absorbance versus controls assessed at time 0 using Cell Titer 96R aqueous MTS kit (Promega, Madison, Wis.). DNA synthesis was measured using a BrdU Assay (EMD Biosciences, Billerica, Mass.).
Proliferative capacities of the treated HUVEC (CD47 morpholino, 7N3 peptide, or 604 control peptide) were assessed using MTS assays.

[3] = tested on: WT Jurkat T cells; experiment: QPCR analysis of c-Myc mRNA in WT Jurkat T cells treated with CD47 binding peptides; type: cell-based, human; details: for c-Myc expression (FIG. 21B): 1 μM or 10 μM
Protocol: FIGS. 21A and B are a pair of graphs showing QPCR analysis of c-Myc mRNA expression. WT Jurkat T cells were treated with the CD47 binding peptide 459 (also known as peptide 4N1) or control peptide 761 at 1 μM or 0.1 μM (FIG. 21A). WT Jurkat T cells were also treated with the CD47-binding peptide 7N3 or the control peptide 604 at 1 μm or 10 μM (FIG. 21B).
as §1

[4] = tested on: HUVEC; experiment: Sustained proliferation / self-renewal of HUVEC in continuous culture; type: cell-based, human; details: 7N3 10 μM; B6H12 1 μg/ml
Excerpt: (§2) Human umbilical vein endothelial cells (HUVEC), which express CD47, normally become senescent with repeated passage in tissue culture (FIG. 16A).
Therefore, antisense suppression of CD47 is sufficient to induce reprogramming of primary endothelial cells of a mesodermal lineage into an ectodermal lineage.

[5] = tested on: HUVECs; experiment: Real-time PCR of HUVECs treated for three weeks with neural medium and 7N3 peptide or B6H12 antibody; type: cell-based, human
Protocol: as §1, with “WT. […]” for “WT.”

[6] = tested on: TSP1 null cells; experiment: Sustained proliferation of TSP1 null murine lung endothelial cells; type: cell-based, mouse; details: relative to WT cells
Excerpt: Cell culture and reagents: Thrombospondin-1 null (Lawler et al., J Clin Invest 101, 982-992, 1998) CD47 null mice (Lindberg et al., Science 274, 795-798, 1996) extensively back-crossed onto a C57Bl/6J background and WT mice were maintained in a pathogen-free environment according to protocols approved by the NCI Animal Care and Use Committee. Mouse lung endothelial cells were isolated and their purity verified as described previously (Zhou et al., Oncogene 25, 536-545, 2006). These conditions were previously documented to reproducibly yield >95% pure endothelial cells at passage two (CD31+, smooth muscle actin-). Mouse lung endothelial cells were cultured at 37° C. with 5% CO2 using Endothelial Growth Medium-2 (EGM2) (Thermo Scientific Fisher. Inc., Waltham, Mass.). Cell populations from mouse spleens were separated using the Pan T cell Isolation (130-095-130), CD4 (L3T4) (130-049-201), CD8a (Ly-2) (130-049-401) CD11b (130-049-601), CD19 microbead kits (130-052-201) (MACS, Miltenyi Biotech Germany).
as §2

[7] = tested on: JinB8 cells; experiment: c-Myc mRNA in CD47-deficient JinB8 cells treated with thrombospondin-1; type: cell-based, human; details: Jurkat cells lacking CD47; at 24 hours
Protocol: as §1, with “B2M was used for normalization of mRNA levels in human cells. Note that the total RNA yield per cell was higher for all CD47-null and CD47-deficient cells and tissues as compared to WT.” left out

[8] = tested on: Human rTEC; experiment: RT-PCR of self-renewal genes in human renal tubular epithelial cells; type: cell-based
Protocol: FIG. 25 is a series of graphs showing that blockade of CD47 elevates self-renewal transcription factors in human renal cells. Human rTEC were treated with TSp1 (2.2 nmol/L)±a CD47 monoclonal Ab (clone B6H12, 1 μg/ml) and RT-PCR performed for the indicated targets (top, c-Myc; middle. Sox2; bottom, Klf4). Results are the mean (±S.E.M.) of three separate experiments.
TSP1 inhibits self-renewal signals in primary human renal tubular epithelial cells, and CD47 blockade therapy elevates self renewal genes in human renal cells: It is not clear what role the TSP1-CD47 signal cascade played on self-renewal signaling in specific renal cell types. We wanted to confirm in human cells that activation of CD47 inhibits self-renewal genes. Renal tubular epithelial cells (rTEC) are a primary source of injury in the kidney. Human rTEC were treated with a low concentration of exogenous TSP1 (2.2 nmol/L) and found suppression of self-renewal genes including cMyc and Sox2 and Klf4 (FIG. 25). […] Thus, in human renal cells CD47 blockade increases the stem cell-pluripotent capacity of renal cells.

[9] = tested on: JinB8 cells re-expressing CD47; experiment: c-Myc expression in JinB8 cells re-expressing CD47 treated with thrombospondin-1; type: cell-based, human; details: CD47 re-expressed in JinB8 cells
Protocol: JINB8 cells were transfected with CD47-V5 construct using Amaxa™ Nucleofector™ (Lonza) non-viral transfection technology. The transfection efficiency was determined by flow Cytometry. The CD47-V5 transfected cells were purified using magnetic beads bound with human CD47 antibody (B6H12). The transfected cells were loaded onto MACS column which was placed in the magnetic field of a MACS® separator (Miltenyi Biotec). The magnetic bead labeled CD47^+ cells were retained on the column. The unlabeled cells ran through and were depleted from CD47^+ cells. After removal of the column, the CD47^+ cells bound to magnetic beads were eluted. The pure population of CD47^+ cells was stably cultured using G418 (250 μg/ml). The pure population of CD47^+ and Jurkat cells were centrifuged and re-suspended in RPMI with 1% FBS at 10^6 cells/ml. Cells were plated in 12 well plates and treated with 1 μg/ml (2.2 nM) thrombospondin-1, and total RNA was isolated using TRIzol®. The relative gene expression of c-MYC was measured using GAPDH as a control.

[10] = real-time PCR, HUVECs three weeks in neural medium, two values per treatment

FIRGGMYEGKK (Synthetic peptide 604) [compound 604]
c-Myc levels (FIG. 7E) [1]: inactive
proliferation (MTS) [2]: decreased proliferation
c-Myc expression (FIG. 21B) [3]: did not

FIRVVMYEGKK (Synthetic peptide 7N3)
c-Myc levels (FIG. 7E) [1]: suppression
sustained proliferation [4]: dramatically increased
proliferation (MTS) [2]: enhanced proliferation
expression of mRNAs encoding c-Myc and other stem cell transcription factors (Sox2, Klf4, Oct4) and nestin ([5]; EBM serum free (neural basal) medium for 3 weeks, in words): high expression
Oct4 C(t) [5, 10]: 34.48 and 34
c-Myc C(t) [5, 10]: 30.19 and 18.49
klf4 C(t) [5, 10]: 26.31 and 26.17
nestin C(t) [5, 10]: 31.6104 and 31.32
sox2 C(t) [5, 10]: 28.09 and 29
c-Myc expression (FIG. 21B) [3]: more dramatic increase
proliferative response [6]: their response was less than the WT cells

RFYVVMWK (Synthetic peptide - 4N1) [compound 459]
c-Myc mRNA expression (FIG. 21A) ([3]; 0.1 μM, at 72 hours, relative to control peptide 761): significantly increased

TSP1: Human TSP1 purified from the supernatant of thrombin-activated platelets; CD47 ligand
c-Myc levels, time course ([1]; 2.2 nM thrombospondin-1): transiently induced but then strongly inhibited
c-MYC expression (FIG. 14D) ([1]; Jurkat cells): reduces c-MYC expression
concentration sufficient to inhibit c-Myc expression ([1]; at 24 hours): Picomolar concentrations
c-Myc mRNA levels [7]: not significantly inhibited
expression of self-renewal transcription genes ([8]; TSP1 2.2 nM, low passage cells): decreased expression of self-renewal transcription genes
Klf4 expression ([8]; TSP1 2.2 nmol/L, B6H12 1 μg/ml): suppression
Sox2 expression ([8]; TSP1 2.2 nmol/L, B6H12 1 μg/ml): suppression
cMyc expression ([8]; TSP1 2.2 nmol/L, B6H12 1 μg/ml): suppression
c-Myc expression [9]: reduces c-MYC expression
c-Myc expression ([9]; listed as thrombospondin-1): restored the ability of thrombospondin-1 to inhibit c-Myc expression
